Results: patent US4215069A, “Arylthiovinylcyclopropanecarboxylate intermediates” (FMC Corporation, priority 1979, dated 1980)

Experiments:
Twospotted spider mite = assay: 7-day residual contact activity against twospotted spider mite (percent kill); assay type: in vivo; details: Tetranychus urticae, 168 h, treated surface aged seven days in light and air, read-out: Percent Kill SM, 7-day residual activity
Experimental: (§1) The test compound was dissolved in a small amount of acetone, and the acetone solution was dispersed in water containing one drop of isooctylphenyl polyethoxyethanol to make a solution having 1250 ppm (w/w) active ingredient. Aliquots of this solution were diluted with an appropriate amount of water to provide solutions containing various concentrations of active ingredient. Test organisms and techniques were as follows: the activity against Mexican bean beetle (Epilachna varivestis Muls.) and southern armyworm (Spodoptera eridania [Cram.]) was evaluated by dipping the leaves of pinto bean plants into the test solution and infesting the leaves with the appropriate immature-form insects when the foliage had dried. The activity against the pea aphid (Acyrthosiphon pisum [Harris]) was evaluated on broad bean plants whose leaves were dipped before infestation with adult aphids. The activity against twospotted spider mites (Tetranychus urticae Koch) was evaluated on pinto bean plants whose leaves were dipped after infestation with adult mites. The activity against the milkweed bug (Oncopeltus faciatus [Dallas]) was evaluated by spraying the test solutions into glass dishes or jars containing the adult insects. Following application of the compound and infestation the tests were maintained in a holding room at 80° F. and 50% relative humidity for an exposure period of 72 hours. At the end of this time the dead and living insects or mites were counted and the percent kill was calculated. Results of these tests are summarized in Table I. Most of the compounds tested were active against all the insects.
(§2) The residual contact activity of certain of the compounds was determined on the same organisms using the techniques described above, except that in each case the treated surface was allowed to dry and was exposed to normal light and air for seven days before introduction of the mites or insects. The seven day residual activity was minimal for the mite but substantial against the remaining organisms. Again, the remarkable activity of some of these compounds against milkweed bug and Mexican bean beetle was noted.

[1] = test system: southern armyworm (Spodoptera eridania [Cram.]); assay: Initial contact activity against southern armyworm (percent kill); assay type: in vivo; details: 72 hours exposure, read-out: Percent Kill AW, initial activity
Experimental: as §1

[2] = test system: twospotted spider mites (Tetranychus urticae Koch); assay: Initial contact activity against twospotted spider mite (percent kill); assay type: in vivo; details: 72 hours exposure, read-out: Percent Kill SM, initial activity
Experimental: as §1

Southern armyworm = assay: 7-day residual contact activity against southern armyworm (percent kill); assay type: in vivo; details: Spodoptera eridania, 168 h, treated surface aged seven days in light and air, read-out: Percent Kill AW, 7-day residual activity
Experimental: as §1, §2

[3] = test system: milkweed bug (Oncopeltus faciatus [Dallas]); assay: Initial contact activity against milkweed bug (percent kill); assay type: in vivo; details: 72 hours exposure, read-out: Percent Kill MWB, initial activity
Experimental: as §1

Milkweed bug = assay: 7-day residual contact activity against milkweed bug (percent kill); assay type: in vivo, Oncopeltus faciatus; details: Oncopeltus fasciatus, 168 h, treated surface aged seven days in light and air, read-out: Percent Kill MWB, 7-day residual activity
Experimental: as §1, §2

Pea aphid = assay: 7-day residual contact activity against pea aphid (percent kill); assay type: in vivo; details: Acyrthosiphon pisum, 168 h, treated surface aged seven days in light and air, read-out: Percent Kill PA, 7-day residual activity
Experimental: as §1, §2

[4] = test system: Mexican bean beetle (Epilachna varivestis Muls.); assay: Initial contact activity against Mexican bean beetle (percent kill); assay type: in vivo; details: 72 hours exposure, read-out: Percent Kill MBB, initial activity
Experimental: as §1

[5] = test system: pea aphid (Acyrthosiphon pisum [Harris]); assay: Initial contact activity against pea aphid (percent kill); assay type: in vivo; details: 72 hours exposure, read-out: Percent Kill PA, initial activity
Experimental: as §1

Mexican bean beetle = assay: 7-day residual contact activity against Mexican bean beetle (percent kill); assay type: in vivo; details: Epilachna varivestis, 168 h, treated surface aged seven days in light and air, read-out: Percent Kill MBB, 7-day residual activity
Experimental: as §1, §2

SMILES	activity at 1250 ppm (Twospotted spider mite)	mortality at 1.2 ppm [1]	mortality at 5 ppm [1]	mortality at 20 ppm [1]	mortality at 78 ppm [1]	mortality at 1250 ppm [1]	mortality at 20 ppm [2]	mortality at 78 ppm [2]	mortality at 312 ppm [2]	mortality at 1250 ppm [2]	activity at 20 ppm (Southern armyworm)	activity at 78 ppm (Southern armyworm)	activity at 312 ppm (Southern armyworm)	activity at 1250 ppm (Southern armyworm)	mortality at 20 ppm [3]	mortality at 78 ppm [3]	mortality at 312 ppm [3]	mortality at 1250 ppm [3]	activity at 78 ppm (Milkweed bug)	activity at 312 ppm (Milkweed bug)	further results
CC1(C)C(C=CSc2ccccc2)C1C(=O)OCc1cccc(Oc2ccccc2)c1 (mixture of isomers) [Example 1, 3-phenoxybenzyl cis,trans-3-[2-(E,Z)-phenylthioethenyl]-2,2-dimethylcyclopropanecarboxylate]	0%	0%	0%	0%	0%	0%	0%	0%	0%	0%	0%	0%	0%	0%	10%	10%	5%	30%	5%	10%	activity at 1250 ppm (Milkweed bug): 0%; activity at 78 ppm (Pea aphid): 0%; activity at 312 ppm (Pea aphid): 10%; activity at 1250 ppm (Pea aphid): 30%; mortality at 1.2 ppm [4]: 44%; mortality at 5 ppm [4]: 28%; mortality at 20 ppm [4]: 0%; mortality at 78 ppm [4]: 62%; mortality at 1250 ppm [4]: 100%; mortality at 20 ppm [5]: 0%; mortality at 78 ppm [5]: 0%; mortality at 312 ppm [5]: 0%; mortality at 1250 ppm [5]: 0%
CC1(C)C(C=C(Cl)Sc2ccccc2)C1C(=O)OC(C#N)c1cccc(Oc2ccccc2)c1 (mixture of isomers) [Example 3, α-cyano-3-phenoxybenzyl cis,trans-3-[2-(E,Z)-chloro-2-phenylthioethenyl]-2,2-dimethylcyclopropanecarboxylate]	0%	0%	0%	0%	75%	100%	0%	0%	0%	49%	62%	56%	53%	100%	70%	100%	100%	100%	70%	85%	activity at 2.5 ppm (Mexican bean beetle; 2.5 ppm): 66%; activity at 10 ppm (Mexican bean beetle; 10 ppm): 75%; activity at 39 ppm (Mexican bean beetle; 39 ppm): 100%; activity at 78 ppm (Mexican bean beetle; 78 ppm): 100%; activity at 1250 ppm (Mexican bean beetle; 1250 ppm): 97%; activity at 1250 ppm (Milkweed bug): 100%; activity at 78 ppm (Pea aphid): 50%; activity at 312 ppm (Pea aphid): 65%; activity at 1250 ppm (Pea aphid): 100%; mortality at 1.2 ppm [4]: 80%; mortality at 5 ppm [4]: 100%; mortality at 20 ppm [4]: 92%; mortality at 78 ppm [4]: 92%; mortality at 1250 ppm [4]: 94%; mortality at 20 ppm [5]: 27%; mortality at 78 ppm [5]: 60%; mortality at 312 ppm [5]: 85%; mortality at 1250 ppm [5]: 100%
CC1(C)C(C=CSc2ccccc2)C1C(=O)OC(C#N)c1cccc(Oc2ccccc2)c1 (mixture of isomers) [Example 2, α-cyano-3-phenoxybenzyl cis,trans-3-[2-(E,Z)-phenylthioethenyl]-2,2-dimethylcyclopropanecarboxylate]	0%	0%	0%	0%	0%	41%	0%	0%	0%	0%	0%	0%	0%	0%	0%	20%	90%	100%	5%	0%	activity at 1250 ppm (Milkweed bug): 5%; activity at 78 ppm (Pea aphid): 30%; activity at 312 ppm (Pea aphid): 23%; activity at 1250 ppm (Pea aphid): 100%; mortality at 1.2 ppm [4]: 6%; mortality at 5 ppm [4]: 0%; mortality at 20 ppm [4]: 22%; mortality at 78 ppm [4]: 80%; mortality at 1250 ppm [4]: 100%; mortality at 20 ppm [5]: 0%; mortality at 78 ppm [5]: 0%; mortality at 312 ppm [5]: 5%; mortality at 1250 ppm [5]: 75%
